According to ChEMBL document CHEMBL1153138, “2,4-Diaminopyrimidine MK2 inhibitors. Part II: Structure-based inhibitor optimization” (Bioorg Med Chem Lett, 2010):

Key:
Set-up in all cases: dose 3 mg/kg, route intravenous
Settings in all cases: in vivo
[1] = system: Rattus norvegicus; assay: Clearance in Sprague-Dawley rat at 3 mg/kg, iv; assay type: ADME, organism-based
[2] = system: Rattus norvegicus; assay: Half life in Sprague-Dawley rat at 3 mg/kg, iv; assay type: ADME, organism-based
[3] = system: Rattus norvegicus; assay: Terminal Phase volume of distribution at steady state in Sprague-Dawley rat at 3 mg/kg, iv; assay type: ADME, organism-based
[4] = system: Rattus norvegicus; assay: AUC in Sprague-Dawley rat at 3 mg/kg, iv; assay type: ADME, organism-based, Plasma

CL [1]: 28.3 mL/min/kg
t1/2 [2]: 5.5 h
Vbeta [3]: 4 L/kg
AUC [4]: 4200 ng·h/mL
Structure (SMILES): NCCCn1cc(-c2cc(-c3cc4ccccc4s3)c3[nH]ncc3c2)c2nc(N)ncc21
